This note sets out measurements from ChEMBL document CHEMBL1131915, “Substituted furans as inhibitors of the PDE4 enzyme” (Bioorg Med Chem Lett, 1999).

Chain of 3',5'-cyclic-AMP phosphodiesterase 4A (P27815 whole entry): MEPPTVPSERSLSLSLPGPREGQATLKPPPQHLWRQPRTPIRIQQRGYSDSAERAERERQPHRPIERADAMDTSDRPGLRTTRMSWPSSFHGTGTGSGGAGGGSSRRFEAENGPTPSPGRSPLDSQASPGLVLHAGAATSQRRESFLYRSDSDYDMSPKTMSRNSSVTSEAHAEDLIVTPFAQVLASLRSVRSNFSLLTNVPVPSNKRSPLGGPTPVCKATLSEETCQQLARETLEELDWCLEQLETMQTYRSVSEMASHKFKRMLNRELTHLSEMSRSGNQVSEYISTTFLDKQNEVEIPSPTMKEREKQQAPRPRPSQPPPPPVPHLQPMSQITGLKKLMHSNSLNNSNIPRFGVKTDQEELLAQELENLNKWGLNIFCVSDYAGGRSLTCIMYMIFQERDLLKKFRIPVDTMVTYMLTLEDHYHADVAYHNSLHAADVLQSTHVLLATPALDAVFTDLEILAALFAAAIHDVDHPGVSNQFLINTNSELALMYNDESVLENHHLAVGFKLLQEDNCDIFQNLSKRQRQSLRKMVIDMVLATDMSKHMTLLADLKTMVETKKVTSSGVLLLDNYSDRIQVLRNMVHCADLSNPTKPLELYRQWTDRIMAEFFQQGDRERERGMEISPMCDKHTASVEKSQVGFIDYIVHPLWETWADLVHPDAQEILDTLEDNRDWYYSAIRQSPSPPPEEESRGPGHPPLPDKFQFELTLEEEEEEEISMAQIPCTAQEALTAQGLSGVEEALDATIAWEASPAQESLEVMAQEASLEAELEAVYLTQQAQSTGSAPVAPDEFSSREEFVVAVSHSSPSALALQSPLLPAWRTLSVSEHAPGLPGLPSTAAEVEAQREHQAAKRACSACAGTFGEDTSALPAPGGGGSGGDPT

One test has as its target 3',5'-cyclic-AMP phosphodiesterase 4A (Homo sapiens, UniProt P27815). Kind of test: PDE4A activity assessed using human recombinant purified GST-PDE4A248.
By IC50 is commonly meant the concentration that inhibits the measured activity by half. Consider `COc1ccc(-c2ccc(-c3ccncc3)o2)cc1OC1CCCC1`, for which the IC50 is 65 nM.

In the case of `COc1ccc(-c2ccc(-c3ccccn3)o2)cc1OC1CCCC1`, the IC50 was found to be 25 nM.

As to `COc1ccc(-c2cc(C(C)=O)c(-c3ccc(OC)c(OC)c3)o2)cc1OC`, the IC50 stood at 120 nM.

`O=C(c1ccccc1)c1cc(-c2ccccc2)oc1-c1ccccc1`: the IC50 was found to be 340 nM.

Consider `COc1ccc(-c2ccc(-c3cccnc3)o2)cc1OC1CCCC1`, for which the IC50 was determined as 370 nM.

As for `COc1ccc(-c2ccc(-c3ccc(OC)c(OC4CCCC4)c3)o2)cc1OC1CCCC1`, the IC50 was determined as 44 nM.

On to `c1ccc(-c2cc(N3CCOCC3)c(-c3ccccc3)o2)cc1`, for which the half-inhibitory concentration (IC50) turned out to be 2300 nM.

With `c1ccc(-c2ccc(-c3ccccc3)o2)cc1`, the IC50 was more than 10000 nM.

Take `COc1ccc(-c2oc(-c3ccccn3)cc2C(=O)c2ccccc2)cc1OC1CCCC1`: the IC50 was 590 nM.

Take `COc1ccc(-c2cc(S(=O)(=O)c3ccccc3)c(-c3ccccn3)o2)cc1OC1CCCC1`: the IC50 stood at 740 nM.

Consider `COc1ccc(-c2oc(-c3ccccn3)cc2S(=O)(=O)c2ccccc2)cc1OC1CCCC1`, for which the IC50 worked out at 770 nM.

For `COc1ccc(-c2ccc(-c3ccc(OC)c(OC)c3)o2)cc1OC`, the half-maximal inhibitory concentration (IC50) turned out to be 560 nM.

For the molecule `COc1ccc(-c2ccc(-c3ccc4ccccc4n3)o2)cc1OC1CCCC1`, the IC50 is 190 nM.

The next test is filed under the species Mustela putorius furo. In words: Emetic effect in ferret model, threshold value. The class given is functional.
For the molecule `COc1ccc(-c2ccc(-c3ccccn3)o2)cc1OC1CCCC1`, the Threshold value amounted to 10 mg/kg.

`COc1ccc([C@@H]2CNC(=O)C2)cc1OC1CCCC1` [(-)-ROLIPRAM] came in with a Threshold value of 0.3 mg/kg.
